Reference: US20230241071A1, “COMBINATION TREATMENT OF LIVER DISORDERS” (Terns Pharmaceuticals, Inc., priority 2021, published 2023)
“Also recorded” adds a separate entry of the source. Where two headings read alike, the source gives them in different places. Marks after values point to notes of the source that are not given here. One block for each molecule: values may come before it.

Tests used:
[1] = Multiple ascending doses of Compound 2 in healthy subjects with elevated LDL-c; assay type: in vivo, human; conditions: 1, 3, 6, 10 mg QD 14 days
Description: Healthy volunteers with mildly elevated LDL-c were randomized 3:1 to Compound 2 (n=6) or placebo (n=2). Volunteers randomized to Compound 2 received multiple doses of 1, 3, 6 or 10 mg of Compound 2 once daily for 14 days in the MAD cohort of the study.

[2] = Single-ascending dose trial of Compound 2 in healthy participants: safety and PK; assay type: in vivo, human; conditions: for half-life / AUC(0-inf) / Cmax / Tmax: human, plasma, oral; for AUC(0-inf) / Cmax: mean; for fe, fraction of dose excreted in urine as unmodified compound 2: mean (% CV)
Description: A single-ascending dose clinical trial of Compound 2 (potassium salt) was performed.
Compound 2 plasma and urine concentrations were determined using validated liquid chromatography-tandem mass spectrometry assay
Urine samples for Compound 2 concentration and PK sampling were collected pre-dose and at the following timepoints: 0-6 hours, 6-12 hours, 12-24 hours, and 24-48 hours. PK parameters were estimated via noncompartmental methods using Phoenix® WinNonlin® (Certara, LP, Princeton, N.J.). Concentrations of serum pharmacodynamic (PD) biomarkers apolipoprotein B (Apo B) and sex hormone binding globulin (SHBG) were measured using an immunoassay and serum lipids were determined using spectrophotometry.

THR-β = biological target: T1, THR-β (Homo sapiens, UniProt P10828); assay: Agonistic activity toward the thyroxine receptor beta; assay type: biochemical
T1 sequence (P10828 1-461): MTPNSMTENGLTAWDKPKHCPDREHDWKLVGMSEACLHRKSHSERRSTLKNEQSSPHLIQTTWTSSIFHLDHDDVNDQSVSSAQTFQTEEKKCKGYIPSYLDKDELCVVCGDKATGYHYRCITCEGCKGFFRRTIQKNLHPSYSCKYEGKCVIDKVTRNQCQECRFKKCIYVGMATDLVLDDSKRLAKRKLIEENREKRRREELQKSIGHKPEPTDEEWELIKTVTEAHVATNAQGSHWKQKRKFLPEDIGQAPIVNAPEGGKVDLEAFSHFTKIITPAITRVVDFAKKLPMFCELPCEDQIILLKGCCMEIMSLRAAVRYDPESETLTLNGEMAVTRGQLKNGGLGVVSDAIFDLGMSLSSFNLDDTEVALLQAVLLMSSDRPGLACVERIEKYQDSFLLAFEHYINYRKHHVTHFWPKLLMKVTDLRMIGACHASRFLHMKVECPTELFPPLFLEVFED

SSAO = biological target: T2, SSAO (Homo sapiens, UniProt Q16853); assay: Plasma SSAO/amine oxidase activity and methylamine after a single dose of Compound 1; assay type: in vivo
T2 construct: from tissue; host or cells: human plasma from dosed participants
T2 sequence (Q16853 29-763 limits assumed): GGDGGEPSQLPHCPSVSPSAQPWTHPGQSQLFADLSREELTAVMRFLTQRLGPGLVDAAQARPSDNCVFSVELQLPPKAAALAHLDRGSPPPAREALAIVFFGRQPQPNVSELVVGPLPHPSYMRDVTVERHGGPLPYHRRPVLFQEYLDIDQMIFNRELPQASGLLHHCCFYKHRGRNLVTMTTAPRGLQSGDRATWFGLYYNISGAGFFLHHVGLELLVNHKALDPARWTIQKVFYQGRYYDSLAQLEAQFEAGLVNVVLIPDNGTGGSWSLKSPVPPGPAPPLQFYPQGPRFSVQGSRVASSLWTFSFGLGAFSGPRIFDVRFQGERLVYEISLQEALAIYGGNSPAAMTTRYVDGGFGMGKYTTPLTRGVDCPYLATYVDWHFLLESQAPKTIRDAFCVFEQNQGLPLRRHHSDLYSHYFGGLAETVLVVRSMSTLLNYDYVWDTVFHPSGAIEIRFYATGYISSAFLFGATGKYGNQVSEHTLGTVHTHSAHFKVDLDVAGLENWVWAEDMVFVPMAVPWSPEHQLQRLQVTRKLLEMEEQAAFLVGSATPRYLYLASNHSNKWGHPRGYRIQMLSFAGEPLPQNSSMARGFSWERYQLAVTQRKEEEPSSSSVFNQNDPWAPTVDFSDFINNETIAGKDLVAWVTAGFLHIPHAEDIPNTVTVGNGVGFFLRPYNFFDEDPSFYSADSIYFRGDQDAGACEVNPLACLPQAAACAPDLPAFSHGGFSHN
Description: Safety was assessed for 7 (±3) days after dosing.
Plasma PK parameters were determined by non-compartmental analysis.
SSAO-specific amine oxidase levels in plasma were determined using a kinetic-based assay essentially as described previously (Schilter et al). Endogenous monoamine oxidases A and B were inhibited by adding pargyline to plasma samples prior to measuring H2O2 generation levels in placebo and active recipients.

[3] = single dose 3 mg, fasted (n = 6)
[4] = single dose 10 mg, fasted (n = 6)
[5] = single dose 30 mg, fasted (n = 6)
[6] = single dose 60 mg, fasted (n = 6)

Structure (SMILES): N#Cc1nn(-c2cc(Cl)c(Oc3n[nH]c(=O)c4ccccc34)c(Cl)c2)c(=O)[nH]c1=O [Compound 2, 2-(3,5-dichloro-4-((4-oxo-3,4-dihydrophthalazin-1-yl)oxy)phenyl)-3,5-dioxo-2,3,4,5-tetrahydro-1,2,4-triazine-6-carbonitrile]
PK dose proportionality and variability [1]: dose-proportional PK with low variability | SHBG [1]: increased SHBG | circulating atherogenic lipid levels (LDL-c, Apo B, total cholesterol, triglycerides) [1]: significant decreases | free T4 [1]: Dose-dependent declines | safety and tolerability [1]: generally safe and well-tolerated | subjects with ALT increase to ≥2×ULN [1]: No subject | heart rates ([2]; 24 hours after single dose): remained stable and within the normal range | renal excretion ([2]; all single doses): Minimal renal excretion | half-life ([2]; 3 mg, single dose 3 mg, fasted (n = 6), median (min-max), read-out: t1/2 (converted)): 17.3 h | half-life ([2]; 10 mg, single dose 10 mg, fasted (n = 6), median (min-max), read-out: t1/2 (converted)): 14.4 h | half-life ([2]; 30 mg, single dose 30 mg, fasted (n = 6), median (min-max), read-out: t1/2 (converted)): 15.7 h | half-life ([2]; 60 mg, single dose 60 mg, fasted (n = 6), median (min-max), read-out: t1/2 (converted)): 13.8 h | half-life ([2]; single dose 3-60 mg, read-out: half-life (median) across single dose levels): 13.8 to 17.3 h | AUC(0-inf) [2, 3]: 4060 ng·h/mL | Cmax [2, 3]: 217 ng/mL | Tmax ([2]; single dose 3 mg, fasted (n = 6), median (min-max)): 4 h | AUC(0-inf) [2, 4]: 8110 ng·h/mL | Cmax [2, 4]: 614 ng/mL | Tmax ([2]; single dose 10 mg, fasted (n = 6), median (min-max)): 4 h | AUC(0-inf) [2, 5]: 33000 ng·h/mL | Cmax [2, 5]: 1800 ng/mL | Tmax ([2]; single dose 30 mg, fasted (n = 6), median (min-max)): 4 h | AUC(0-inf) [2, 6]: 50000 ng·h/mL | Cmax [2, 6]: 3300 ng/mL | Tmax ([2]; single dose 60 mg, fasted (n = 6), median (min-max)): 4 h | overall safety and tolerability ([2]; single ascending doses up to 60 mg): safe and well-tolerated | AEs by relationship to drug: Not related ([2]; single dose 3 mg (n = 6)): 2 (33.3%) | AEs by relationship to drug: Possibly related ([2]; single dose 3 mg (n = 6)): 0 | AEs by relationship to drug: Related ([2]; single dose 3 mg (n = 6)): 0 | AEs by relationship to drug: Unlikely related ([2]; single dose 3 mg (n = 6)): 0 | Any AE, all CTCAE grades ([2]; single dose 3 mg (n = 6)): 2 (33.3%) | CTCAE Grade 1 AEs ([2]; single dose 3 mg (n = 6)): 0 | CTCAE Grade 2 AEs ([2]; single dose 3 mg (n = 6)): 0 | CTCAE Grade 3 or higher AEs ([2]; single dose 3 mg (n = 6)): 0 | Serious AEs ([2]; single dose 3 mg (n = 6)): 0 | fe, fraction of dose excreted in urine as unmodified compound 2 [2, 3]: 2.95 (62) % dose, urine | AEs by relationship to drug: Not related ([2]; single dose 10 mg (n = 6)): 0 | AEs by relationship to drug: Possibly related ([2]; single dose 10 mg (n = 6)): 0 | AEs by relationship to drug: Related ([2]; single dose 10 mg (n = 6)): 0 | AEs by relationship to drug: Unlikely related ([2]; single dose 10 mg (n = 6)): 0 | Any AE, all CTCAE grades ([2]; single dose 10 mg (n = 6)): 0 | CTCAE Grade 1 AEs ([2]; single dose 10 mg (n = 6)): 0 | CTCAE Grade 2 AEs ([2]; single dose 10 mg (n = 6)): 0 | CTCAE Grade 3 or higher AEs ([2]; single dose 10 mg (n = 6)): 0 | Serious AEs ([2]; single dose 10 mg (n = 6)): 0 | fe, fraction of dose excreted in urine as unmodified compound 2 [2, 4]: 2.05 (74) % dose, urine | AEs by relationship to drug: Not related ([2]; single dose 30 mg (n = 6)): 1 (16.7%) | AEs by relationship to drug: Possibly related ([2]; single dose 30 mg (n = 6)): 1 (16.7%)* | AEs by relationship to drug: Related ([2]; single dose 30 mg (n = 6)): 0 | AEs by relationship to drug: Unlikely related ([2]; single dose 30 mg (n = 6)): 0 | Any AE, all CTCAE grades ([2]; single dose 30 mg (n = 6)): 2 (33.3%) | CTCAE Grade 1 AEs ([2]; single dose 30 mg (n = 6)): 1 (16.7%) | CTCAE Grade 2 AEs ([2]; single dose 30 mg (n = 6)): 1 (16.7%) | CTCAE Grade 3 or higher AEs ([2]; single dose 30 mg (n = 6)): 0 | Serious AEs ([2]; single dose 30 mg (n = 6)): 0 | fe, fraction of dose excreted in urine as unmodified compound 2 [2, 5]: 1.78 (35) % dose, urine | AEs by relationship to drug: Not related ([2]; single dose 60 mg (n = 6)): 0 | AEs by relationship to drug: Possibly related ([2]; single dose 60 mg (n = 6)): 0 | AEs by relationship to drug: Related ([2]; single dose 60 mg (n = 6)): 0 | AEs by relationship to drug: Unlikely related ([2]; single dose 60 mg (n = 6)): 0 | Any AE, all CTCAE grades ([2]; single dose 60 mg (n = 6)): 0 | CTCAE Grade 1 AEs ([2]; single dose 60 mg (n = 6)): 0 | CTCAE Grade 2 AEs ([2]; single dose 60 mg (n = 6)): 0 | CTCAE Grade 3 or higher AEs ([2]; single dose 60 mg (n = 6)): 0 | Serious AEs ([2]; single dose 60 mg (n = 6)): 0 | fe, fraction of dose excreted in urine as unmodified compound 2 [2, 6]: 1.53 (53) % dose, urine | TSH, free T3, and free T4 levels ([2]; single dose 3-60 mg): remained within the normal range | cardiac related AEs ([2]; single dose 3-60 mg): No cardiac related AEs | exposures (AUC, Cmax), dose proportionality ([2]; single dose 3-60 mg): approximately dose-proportional | half-life (median) across single dose levels ([2]; single dose 3-60 mg): > 13 h | severity of adverse events ([2]; single dose 3-60 mg): mild or moderate | subjects with increases in ALT more than 2-times greater than ULN ([2]; single dose 3-60 mg): No subjects | EC50 (THR-β): 1.75 µM

inhibition of plasma SSAO activity (SSAO; 4 hours post-dose, all dose cohorts (1-10 mg)): Near complete inhibition | duration of suppression of plasma SSAO activity after a single dose (SSAO; single dose 1-10 mg): up to 1 week
Structure (SMILES): COC1CCN(c2ncc(OC/C(=C/F)CN)cn2)CC1 [Compound 1, (E)-3-fluoro-2-(((2-(4-methoxypiperidin-1-yl)pyrimidin-5-yl)oxy)methyl)prop-2-en-1-amine]
plasma methylamine (MMA) (SSAO; single dose 1-10 mg): Maximum plasma MMA levels increased; also recorded: Dose-dependent increases
